Experimental data as given in patent US9695155B2, “Herbicidal substituted pyrimidinyloxy benzene compounds” (E. I. DU PONT DE NEMOURS AND COMPANY, priority 2013, dated 2017).

Experiments:
blackgrass [1] = assay: Test D preemergence; type: in vivo, Alopecurus myosuroides; conditions: Alopecurus myosuroides, pre-emergence
Text: (§1) Seeds of plant species selected from bluegrass (annual bluegrass, Poa annua), blackgrass (Alopecurus myosuroides), canarygrass (littleseed canarygrass, Phalaris minor), chickweed (common chickweed, Stellaria media), galium (catchweed bedstraw, Galium aparine), bromegrass, downy (downy bromegrass, Bromus tectorum), field poppy (Papaver rhoeas), field violet (Viola arvensis), green foxtail (Setaria viridis), deadnettle (henbit deadnettle, Lamium amplexicaule), Italian ryegrass (Lolium multiflorum), kochia (Kochia scoparia), lambsquarters (Chenopodium album), oilseed rape (Brassica napus), pigweed (Amaranthus retroflexus), chamomile (scentless chamomile, Matricaria inodora), Russian thistle (Salsola kali), speedwell (bird's-eye speedwell, Veronica persica), spring barley (Hordeum vulgare), spring wheat (Triticum aestivum), wild buckwheat (Polygonum convolvulus), wild mustard (Sinapis arvensis), wild oat (Avena fatua), wild radish (Raphanus raphanistrum), windgrass (Apera spica-venti), winter barley (Hordeum vulgare), and winter wheat (Triticum aestivum) were planted into a silt loam soil and treated preemergence with test chemicals formulated in a non-phytotoxic solvent mixture which included a surfactant.
(§2) At the same time, these species were planted in pots containing Redi-Earth® planting medium (Scotts Company, 14111 Scottslawn Road, Marysville, Ohio 43041) comprising spaghnum peat moss, vermiculite, wetting agent and starter nutrients and treated with postemergence applications of the test chemicals formulated in the same manner. Plants ranged in height from 2 to 18 cm (1- to 4-leaf stage). Treated plants and controls were maintained in a controlled growth environment for 7 to 21 days after which time all species were compared to controls and visually evaluated. Plant response ratings, summarized in Table D, are based on a scale of 0 to 100 where 0 is no effect and 100 is complete control. A dash (-) response means no test result.

canarygrass = assay: Test D preemergence; type: in vivo, Phalaris minor; conditions: Phalaris minor, pre-emergence
Text: as §1, §2

green foxtail = assay: Test D preemergence; type: in vivo, Setaria viridis; conditions: Setaria viridis, pre-emergence
Text: as §1, §2

blackgrass [2] = assay: Test D postemergence; type: in vivo, Alopecurus myosuroides; conditions: Alopecurus myosuroides, post-emergence, Postemergence, scale 0 to 100 (0 no effect, 100 complete control), read-out: Plant response rating, Blackgrass
Text: as §1, §2

field violet = assay: Test D postemergence; type: in vivo, Viola arvensis; conditions: Viola arvensis, post-emergence
Text: as §1, §2

lambsquarters = assay: Test D postemergence; type: in vivo, Chenopodium album; conditions: Chenopodium album, post-emergence
Text: as §1, §2

chamomile = assay: Test D postemergence; type: in vivo, Matricaria inodora; conditions: Tripleurospermum inodorum, post-emergence
Text: as §1, §2

wild radish = assay: Test D postemergence; type: in vivo, Raphanus raphanistrum; conditions: Raphanus raphanistrum, post-emergence
Text: as §1, §2

Fc1cccc(Oc2ncc(Cl)cn2)c1-n1cc(C(F)F)nn1 [Compound 141, 5-chloro-2-[2-[4-(difluoromethyl)-1H-1,2,3-triazol-1-yl]-3-fluorophenoxy]pyrimidine]
pest or weed control at 16 g/ha (blackgrass [1]; 16 g ai/ha, scale 0 (no effect) to 100 (complete control), read-out: Plant response rating, Blackgrass): 40% | pest or weed control at 31 g/ha (blackgrass [1]; 31 g ai/ha, scale 0-100, read-out: Plant response rating, Blackgrass): 65% | pest or weed control at 62 g/ha (blackgrass [1]; 62 g ai/ha, scale 0-100, read-out: Plant response rating, Blackgrass): 90% | pest or weed control at 125 g/ha (blackgrass [1]; 125 g ai/ha, scale 0-100, read-out: Plant response rating, Blackgrass): 95% | pest or weed control at 16 g/ha (canarygrass; 16 g ai/ha, scale 0 (no effect) to 100 (complete control), read-out: Plant response rating, Canarygrass): 35% | pest or weed control at 31 g/ha (canarygrass; 31 g ai/ha, scale 0-100, read-out: Plant response rating, Canarygrass): 75% | pest or weed control at 62 g/ha (canarygrass; 62 g ai/ha, scale 0-100, read-out: Plant response rating, Canarygrass): 100% | pest or weed control at 125 g/ha (canarygrass; 125 g ai/ha, scale 0-100, read-out: Plant response rating, Canarygrass): 100% | pest or weed control at 16 g/ha (green foxtail; 16 g ai/ha, scale 0 (no effect) to 100 (complete control), read-out: Plant response rating, Foxtail, Green): 10% | pest or weed control at 31 g/ha (green foxtail; 31 g ai/ha, scale 0-100, read-out: Plant response rating, Foxtail, Green): 100% | pest or weed control at 62 g/ha (green foxtail; 62 g ai/ha, scale 0-100, read-out: Plant response rating, Foxtail, Green): 100% | pest or weed control at 125 g/ha (green foxtail; 125 g ai/ha, scale 0-100, read-out: Plant response rating, Foxtail, Green): 100% | pest or weed control at 62 g/ha (blackgrass [2]; 62 g ai/ha): 35% | pest or weed control at 16 g/ha (blackgrass [2]; 16 g ai/ha): 10% | pest or weed control at 31 g/ha (blackgrass [2]; 31 g ai/ha): 25% | pest or weed control at 125 g/ha (blackgrass [2]; 125 g ai/ha): 55% | pest or weed control at 16 g/ha (field violet; 16 g ai/ha, scale 0-100, read-out: Plant response rating, Field Violet): 45% | pest or weed control at 31 g/ha (field violet; 31 g ai/ha, scale 0 to 100 (0 no effect, 100 complete control), read-out: Plant response rating, Field Violet): 75% | pest or weed control at 62 g/ha (field violet; 62 g ai/ha, scale 0 to 100 (0 no effect, 100 complete control), read-out: Plant response rating, Field Violet): 85% | pest or weed control at 125 g/ha (field violet; 125 g ai/ha, scale 0 to 100 (0 no effect, 100 complete control), read-out: Plant response rating, Field Violet): 95% | pest or weed control at 16 g/ha (lambsquarters; 16 g ai/ha, scale 0-100, read-out: Plant response rating, Lambsquarters): 80% | pest or weed control at 31 g/ha (lambsquarters; 31 g ai/ha, scale 0 to 100 (0 no effect, 100 complete control), read-out: Plant response rating, Lambsquarters): 95% | pest or weed control at 62 g/ha (lambsquarters; 62 g ai/ha, scale 0 to 100 (0 no effect, 100 complete control), read-out: Plant response rating, Lambsquarters): 95% | pest or weed control at 125 g/ha (lambsquarters; 125 g ai/ha, scale 0 to 100 (0 no effect, 100 complete control), read-out: Plant response rating, Lambsquarters): 98% | pest or weed control at 16 g/ha (chamomile; 16 g ai/ha, scale 0-100, read-out: Plant response rating, Chamomile): 10% | pest or weed control at 31 g/ha (chamomile; 31 g ai/ha, scale 0 to 100 (0 no effect, 100 complete control), read-out: Plant response rating, Chamomile): 20% | pest or weed control at 62 g/ha (chamomile; 62 g ai/ha, scale 0 to 100 (0 no effect, 100 complete control), read-out: Plant response rating, Chamomile): 15% | pest or weed control at 125 g/ha (chamomile; 125 g ai/ha, scale 0 to 100 (0 no effect, 100 complete control), read-out: Plant response rating, Chamomile): 20% | pest or weed control at 16 g/ha (wild radish; 16 g ai/ha, scale 0-100, read-out: Plant response rating, Radish, Wild): 90% | pest or weed control at 31 g/ha (wild radish; 31 g ai/ha, scale 0 to 100 (0 no effect, 100 complete control), read-out: Plant response rating, Radish, Wild): 95% | pest or weed control at 62 g/ha (wild radish; 62 g ai/ha, scale 0 to 100 (0 no effect, 100 complete control), read-out: Plant response rating, Radish, Wild): 100% | pest or weed control at 125 g/ha (wild radish; 125 g ai/ha, scale 0 to 100 (0 no effect, 100 complete control), read-out: Plant response rating, Radish, Wild): 100%
